Results on seven compounds are retold here after patent US20250000854A1, “4-(Aminomethyl)-6-(1-Methyl-1H-Pyrazol-4-YL)Isoquinolin-1(2H)-One Derivatives as MTA-Cooperative Inhibitors of PRMT5” (BeiGene, Ltd., priority 2022, published 2025).

Counter-ions that a name gives are not always drawn.

For experiment [1], the target named is T1, human PRMT5/MEP50 enzyme (Homo sapiens (Human), UniProt O14744). Put plainly: PRMT5 Biochemical Assay (TR-FRET) in the absence of MTA. The conditions noted are these: without MTA; 10 nM PRMT5/MEP50, 3 μM S-adenosylmethionine, histone H4 peptide. How it is done:
(§1) The assay measures the methylation activity of purified human PRMT5/MEP50 enzyme toward histone H4-R3. Compounds disclosed herein were tested for inhibition of PRMT5/MEP50 using PRMT5 TR-FRET Assay Kit (BPS Bioscience) which contains a highly specific antibody that recognizes methylated substrates. The assay was carried out in 384-well low volume black plates in a reaction mixture containing 10 nM PRMT5/MEP50 complex, biotinylated histone H4 peptide, 3 μM S-adenosylmethionine and 0-10 μM compound in buffer containing 50 mM Tris-HCl buffer (pH 8.5), 0.005% BSA, 1 mM TCEP and 0.002% Tween-20. The PRMT5/MEP50 enzyme was incubated with compounds disclosed herein and biotinylated histone H4 peptide for 20 minutes at room temperature. The reaction was initiated by addition of S-adenosylmethionine. After reacting at room temperature for 120 minutes, the detection solution containing Eu-labeled antibody and dye-labeled acceptor in detection buffer was added to the reaction mixture. Plates were sealed and incubated at room temperature for 60 minutes, and the TR-FRET signals (excitation 337 nm, emission 665/620 nm) were recorded on a PHERAstar FSX plate reader (BMG Labtech). The inhibition percentage of PRMT5/MEP50 activity in presence of increasing concentrations of compounds was calculated based on the ratio of fluorescence at 665 nm to that at 620 nm. The IC50 value for each compound was derived from fitting the dose-response % inhibition data to the four-parameter logistic model by Dotmatics. And the compounds were tested in the presence and absence of MTA to evaluate whether the compounds display MTA-cooperative activity.
(In TR-FRET formats the signal depends on donor and acceptor labels being close together.)

Experiment [2] has as its target T1, human PRMT5/MEP50 enzyme. The experiment is described as follows: PRMT5 Biochemical Assay (TR-FRET) in the presence of MTA. Conditions: with 800 nM MTA; 10 nM PRMT5/MEP50, 3 μM S-adenosylmethionine, histone H4 peptide. How it is done:
as §1

T1 sequence (O14744 whole entry): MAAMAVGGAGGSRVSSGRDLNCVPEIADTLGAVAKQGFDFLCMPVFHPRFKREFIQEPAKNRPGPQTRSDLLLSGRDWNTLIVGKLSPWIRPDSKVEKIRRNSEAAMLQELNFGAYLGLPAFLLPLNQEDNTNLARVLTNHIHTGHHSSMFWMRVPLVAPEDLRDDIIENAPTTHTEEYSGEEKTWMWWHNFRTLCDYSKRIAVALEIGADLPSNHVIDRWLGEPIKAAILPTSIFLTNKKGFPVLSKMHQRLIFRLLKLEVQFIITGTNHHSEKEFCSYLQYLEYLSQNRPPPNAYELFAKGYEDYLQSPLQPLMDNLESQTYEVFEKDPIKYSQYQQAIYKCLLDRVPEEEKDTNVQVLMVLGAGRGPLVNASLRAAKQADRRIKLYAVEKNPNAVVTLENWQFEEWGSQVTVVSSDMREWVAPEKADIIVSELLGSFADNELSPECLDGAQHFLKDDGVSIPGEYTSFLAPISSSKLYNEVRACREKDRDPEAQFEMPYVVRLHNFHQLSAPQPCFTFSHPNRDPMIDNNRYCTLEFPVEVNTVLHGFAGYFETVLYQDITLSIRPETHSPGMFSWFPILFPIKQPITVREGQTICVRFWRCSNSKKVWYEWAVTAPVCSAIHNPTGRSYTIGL
T1 sequence (Q9BQA1 whole entry partner): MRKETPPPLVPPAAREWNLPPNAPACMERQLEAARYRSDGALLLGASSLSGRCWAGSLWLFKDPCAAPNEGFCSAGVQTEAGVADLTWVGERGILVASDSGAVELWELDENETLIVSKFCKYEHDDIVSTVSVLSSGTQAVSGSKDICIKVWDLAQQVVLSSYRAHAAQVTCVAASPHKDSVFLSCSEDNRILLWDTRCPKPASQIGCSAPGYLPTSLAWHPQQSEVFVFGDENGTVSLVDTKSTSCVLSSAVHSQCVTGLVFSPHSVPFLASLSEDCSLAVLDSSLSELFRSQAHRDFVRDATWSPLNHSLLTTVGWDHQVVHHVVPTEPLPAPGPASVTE

Broadly, the IC50 is the concentration that gives 50% inhibition. Take `Cn1ncc(-c2ccc3c(=O)[nH]cc(CN)c3c2)c1-c1c(F)cc2ccccc2c1C#N` [Example 1, 2-(4-(4-(aminomethyl)-1-oxo-1,2-dihydroisoquinolin-6-yl)-1-methyl-1H-pyrazol-5-yl)-3-fluoro-1-naphthonitrile]: the IC50 is 29 nM at human PRMT5/MEP50 enzyme [1] and 3.2 nM at human PRMT5/MEP50 enzyme [2].
As to `Cn1ncc(-c2ccc3c(=O)[nH]cc(CN)c3c2)c1-c1cc(Cl)cc(OC2CC2)c1C#N` [Example 2, 2-(4-(4-(aminomethyl)-1-oxo-1,2-dihydroisoquinolin-6-yl)-1-methyl-1H-pyrazol-5-yl)-4-chloro-6-cyclopropoxybenzonitrile hydrochloride], the IC50 against human PRMT5/MEP50 enzyme [1] amounted to 77 nM; at human PRMT5/MEP50 enzyme [2] it was 3.3 nM.
With `Cn1ncc(-c2ccc3c(=O)[nH]cc(CN)c3c2)c1-c1c(F)c(Cl)cc(OC2CC2)c1C#N` [Example 3, 2-(4-(4-(aminomethyl)-1-oxo-1,2-dihydroisoquinolin-6-yl)-1-methyl-1H-pyrazol-5-yl)-4-chloro-6-cyclopropoxy-3-fluorobenzonitrile hydrochloride], the IC50 turned out to be 68 nM against human PRMT5/MEP50 enzyme [1] and 7.6 nM on human PRMT5/MEP50 enzyme [2].
As for `Cc1cc(-c2c(-c3ccc4c(=O)[nH]cc(CN)c4c3)cnn2C)c(C#N)c2ccccc12` [Example 4, 2-(4-(4-(aminomethyl)-1-oxo-1,2-dihydroisoquinolin-6-yl)-1-methyl-1H-pyrazol-5-yl)-4-methyl-1-naphthonitrile hydrochloride], the IC50 turned out to be 29 nM on human PRMT5/MEP50 enzyme [1] and 2.7 nM on human PRMT5/MEP50 enzyme [2].
Take `Cn1ncc(-c2ccc3c(=O)[nH]cc(CN)c3c2)c1-c1cc(Cl)c2ccccc2c1C#N` [Example 5, 2-(4-(4-(aminomethyl)-1-oxo-1,2-dihydroisoquinolin-6-yl)-1-methyl-1H-pyrazol-5-yl)-4-chloro-1-naphthonitrile hydrochloride]: the values for the IC50 against human PRMT5/MEP50 enzyme [1] and on human PRMT5/MEP50 enzyme [2] were 27 nM and 2.7 nM, respectively.
On to `Cn1ncc(-c2ccc3c(=O)[nH]cc(CN)c3c2)c1-c1cccc(OC2CC2)c1C#N` [Example 6, 2-(4-(4-(aminomethyl)-1-oxo-1,2-dihydroisoquinolin-6-yl)-1-methyl-1H-pyrazol-5-yl)-6-cyclopropoxybenzonitrile hydrochloride], for which the IC50 stood at 87 nM on human PRMT5/MEP50 enzyme [1] and 3.5 nM on human PRMT5/MEP50 enzyme [2].
Taken in the same sequence, the figures for `Cn1ncc(-c2ccc3c(=O)[nH]cc(CN)c3c2)c1-c1cc(C(F)(F)F)cc(OC2CC2)c1C#N` [Example 7, 2-(4-(4-(aminomethyl)-1-oxo-1,2-dihydroisoquinolin-6-yl)-1-methyl-1H-pyrazol-5-yl)-6-cyclopropoxy-4-(trifluoromethyl)benzonitrile hydrochloride] were 165 nM and 6.2 nM.
